Reference: US20210284952A1, “METHODS OF APPLYING ACETATE TOXICITY AND INDUCING ACETATE UPTAKE IN MICROALGAE CULTURES” (HELIAE DEVELOPMENT LLC, priority 2016, published 2021)
Structures can show the parent of a compound that is named as a salt. Where two headings read alike, the source gives them in different places.

Key:
[1] = tested on: Aurantiochytrium sp. HS399
Description: Because the microalgae pH homeostasis will tend to maintain an internal cell pH slightly above neutral (about 7-8) in response to medium acidification, the acetate built up inside the cell may be modeled. The internal acetate concentration of a cell may be calculated from the external culture pH, and the residual acetate concentration in the culture, assuming that the internal pH of the cell and the ionic strength are maintained constant. The pH gradient between the internal cell pH and pH of the culture medium outside the cell may be calculated with the following equation derived from the Hendersen Hassleback equation, from which the internal acetate concentration can be solved: […]
An experiment was conducted to determine the acetate toxicity of Aurantiochytrium sp. HS399. […] The initial culture medium was supplemented with 30 g/L glycerol and 0.5 or 5 g/L acetate.

[2] = tested on: Aurantiochytrium sp. HS399; conditions: pH 5.5 with Acetic Acid, pH 7.0 with HCl
Experimental: (§1) An experiment was performed to determine the effectiveness of applying acetate toxicity to microalgae cultures grown in the presence of a non-acetate organic carbon source, in this case glycerol. Aurantiochytrium sp. HS399 was grown in a 100 L open pond. […] Trace and vitamins stocks were prepared according to Ashford, et al. 2000. Lipids 35, 1377-1386. The ponds were inoculated at 1 v/v using exponentially growing cultures. Aeration was maintained at 0.5 vvm using a porous hose. […] Cytosolic (internal cell) acetate concentration was calculated using the previously described model.

total aerobic bacteria = conditions: for Contamination: pH 5.5 with Acetic Acid, pH 7.0 with HCl
Experimental: as §1

Chlorella sp. HS26 [3] = tested on: Chlorella sp. HS26
Experimental: The experiment of Example 11 was repeated with Chlorella sp. HS26 to evaluate the impact of pH induced acetate toxicity on microalgal lipid and protein accumulation. The two treatments of pH 6.5 and pH 7.5 were set up in outdoor raceway ponds utilizing a pH auxostat with a set point at the designated pH values. The microalgae were cultured for 8 days. Duplicate cultures of each treatment were performed in the experiment. […] The cultures were inoculated at a density of 1 g/L, cultured at a temperature of 25° C., and received natural sunlight.

[4] = tested on: Aurantiochytrium sp. HS399; remark: listed apart in the source
Chlorella sp. HS26 [5] = conditions: pH-auxostat feed
Description: Samples were taken daily to measure dry weight and residual acetate concentration of the culture medium.

Chlorella sp. HS26 [6] = tested on: Chlorella sp. HS26; remark: listed apart in the source
Experimental: An experiment was conducted with Chlorella sp. HS26 to evaluate the impact of pH induced acetate toxicity on microalgal growth during a batch culturing process. The two treatments of pH 6.5 and pH 7.5 were set up in outdoor raceway ponds utilizing a pH auxostat with a set point at the designated pH values and cultured for seven days. Duplicate cultures of each treatment were performed in the experiment. […] The cultures were inoculated at a density of 1 g/L, cultured at a temperature of 25° C., and received natural sunlight.

Chlorella sp. HS26 [7] = conditions: pH 6±0.2 auxostat, dissolved oxygen
Experimental: An experiment was performed to determine the effect on respiration in microalgae Chlorella sp. HS26 in response to acetate toxicity conditions (i.e., the increase of the internal cell acetate concentration). […] Data presented corresponds to a continuous 200 L bubble column culture growing in axenic conditions at culture density of 12 g/L, that was incubated at a temperature of 25 f 0.3° C., and aerated at a rate of 30 LPM. The pH probe: E&H, Digital non-glass pH sensor, Tophit CPS471D helped to maintain the pH at 6±0.2 in a pH auxostat mode. The DO was recorder with a Hamilton, EasyFerm Plus Arc 120, P/N: 242091/06 probe. Samples were taken before and after each pulse and analyzed for residual acetate using HPLC.

[8] = tested on: Aurantiochytrium sp. HS399; conditions: pH 6±0.2 auxostat, dissolved oxygen
Experimental: An experiment was performed to determine the effect on respiration in microalgae Aurantiochytrium sp. HS399 in response to acetate toxicity (i.e., the increase of the internal cell acetate concentration). […] Data presented corresponds to a 4 day old 30 L bubble column bag bioreactor growing in axenic conditions at culture density of 24 g/L, that was incubated at a temperature of 29.5±0.3° C., and aerated at a rate of 10 LPM. The pH probe: E&H, Digital non-glass pH sensor, Tophit CPS471D helped to maintain the pH at 6±0.2 in a pH auxostat mode. The DO was recorder with a Hamilton, EasyFerm Plus Arc 120, P/N: 242091/06 probe. Samples were taken before and after each pulse and analyzed for residual acetate using HPLC. Internal acetate was fluctuations were calculated based on medium residual acetate by integrating the previously presented equation:

[9] = tested on: Aurantiochytrium sp. HS399; conditions: nitrogen source
Experimental: An experiment was conducted to determine the effect of different nitrogen sources on the internal cell acetate concentration for cultures of Aurantiochytrium sp. HS399 cultures. […] 7H2O (2.5), KCl (0.5), CaCl2 (0.1), KH2PO4 (0.5) vitamins (1 ml/L) and trace metal (5 ml/L). […] The ponds were inoculated at 1 v/v using exponentially growing cultures. Aeration was maintained at 0.5 vvm using a porous hose. Equimolar nitrogen concentrations were added top each pond reactor. […] Culture dry weights (filtration) and residual acetate (HPLC) in the culture medium were analyzed daily. Cytosolic (internal cell) acetate concentration was calculated using the previously described model.

With `CC(=O)O` [Acetic Acid, acetic acid] the growth ([1]; 53 g/L internal acetate concentration) was “tolerated”, the growth ([1]; 153 g/l internal acetate concentration) was “inhibited” and the growth ([1]; 329 g/L internal acetate concentration) was “did not proliferate”. The “Cell Dry Weight” value ([1]; pH 4.5, day 0) was 0.3 g/L, the “Cell Dry Weight” value ([1]; pH 4.5, day 1) was 1.8 g/L and the “Cell Dry Weight” value ([1]; pH 4.5, day 2) was 4.5 g/L. For the same compound, the “Cell Dry Weight” value ([1]; pH 4.5, day 3) was 6.4 g/L, the “Cell Dry Weight” value ([1]; pH 4.5, day 4) was 7.8 g/L and the “Cell Dry Weight” value ([1]; pH 4.5, day 5) was 8.4 g/L. The “Cell Dry Weight” value ([1]; pH 4.5, day 6) was 9.3 g/L, the “Cell Dry Weight” value ([1]; pH 5.0, day 0) was 0.3 g/L and the “Cell Dry Weight” value ([1]; pH 5.0, day 1) was 2.1 g/L. For the same compound, the “Cell Dry Weight” value ([1]; pH 5.0, day 2) was 5.6 g/L, the “Cell Dry Weight” value ([1]; pH 5.0, day 3) was 8.1 g/L and the “Cell Dry Weight” value ([1]; pH 5.0, day 4) was 9.9 g/L. The “Cell Dry Weight” value ([1]; pH 5.0, day 5) was 10.6 g/L, the “Cell Dry Weight” value ([1]; pH 5.0, day 6) was 11.4 g/L and the “Cell Dry Weight” value ([1]; pH 5.5, day 0) was 0.3 g/L. For the same compound, the “Cell Dry Weight” value ([1]; pH 5.5, day 1) was 1.9 g/L, the “Cell Dry Weight” value ([1]; pH 5.5, day 2) was 5.5 g/L and the “Cell Dry Weight” value ([1]; pH 5.5, day 3) was 8.5 g/L. For the same compound, the “Cell Dry Weight” value ([1]; pH 5.5, day 4) was 10.8 g/L, the “Cell Dry Weight” value ([1]; pH 5.5, day 5) was 11.4 g/L and the “Cell Dry Weight” value ([1]; pH 5.5, day 6) was 12.0 g/L. For the same compound, the “Cell Dry Weight” value ([1]; pH 7.0, day 0) was 0.3 g/L, the “Cell Dry Weight” value ([1]; pH 7.0, day 1) was 2.7 g/L and the “Cell Dry Weight” value ([1]; pH 7.0, day 2) was 7.1 g/L. For the same compound, the “Cell Dry Weight” value ([1]; pH 7.0, day 3) was 9.8 g/L, the “Cell Dry Weight” value ([1]; pH 7.0, day 4) was 12.0 g/L and the “Cell Dry Weight” value ([1]; pH 7.0, day 5) was 12.7 g/L. The “Cell Dry Weight” value ([1]; pH 7.0, day 6) was 12.7 g/L, the “Cell Dry Weight” value ([2]; day 0) was 0.0 g/L and the “Cell Dry Weight” value ([2]; day 1) was 1.1 g/L. For the same compound, the “Cell Dry Weight” value ([2]; day 2) was 3.5 g/L, the “Cell Dry Weight” value ([2]; day 3) was 6.2 g/L and the “Cell Dry Weight” value ([2]; day 4) was 7.7 g/L. The “Cell Dry Weight” value ([2]; day 5) was 9.7 g/L, the Contamination (total aerobic bacteria; day 0) was 5.5E+04 CFU/mL and the Contamination (total aerobic bacteria; day 1) was 4.8E+05 CFU/mL. The Contamination (total aerobic bacteria; day 2) was 5.7E+07 CFU/mL, the Contamination (total aerobic bacteria; day 3) was 4.0E+10 CFU/mL and the Contamination (total aerobic bacteria; day 4) was 4.6E+12 CFU/mL. For the same compound, the Contamination (total aerobic bacteria; day 5) was 8.0E+14 CFU/mL, the “decrease of aerobic bacteria counts versus other treatment” value (total aerobic bacteria; throughout the batch, acetate toxicity conditions (pH 5.5)) was at least 3 log and the Ash (Chlorella sp. HS26 [3]; pH 6.5, day 0) was 26 6 % DW. The “Total Carbohydrates” value (Chlorella sp. HS26 [3]; pH 6.5, day 0) was 28.51 % DW, the “Total Lipids” value (Chlorella sp. HS26 [3]; pH 6.5, day 0) was 9.82 % DW and the “Total Protein” value (Chlorella sp. HS26 [3]; pH 6.5, day 0) was 35.07 % DW. For the same compound, the Ash (Chlorella sp. HS26 [3]; pH 6.5, day 8) was 3.26 % DW, the “Total Carbohydrates” value (Chlorella sp. HS26 [3]; pH 6.5, day 8) was 32.13 % DW and the “Total Lipids” value (Chlorella sp. HS26 [3]; pH 6.5, day 8) was 29.34 % DW. For the same compound, the “Total Protein” value (Chlorella sp. HS26 [3]; pH 6.5, day 8) was 35.28 % DW, the Ash (Chlorella sp. HS26 [3]; pH 7.5, day 0) was 26 6 % DW and the “Total Carbohydrates” value (Chlorella sp. HS26 [3]; pH 7.5, day 0) was 28.51 % DW. The “Total Lipids” value (Chlorella sp. HS26 [3]; pH 7.5, day 0) was 9.82 % DW, the “Total Protein” value (Chlorella sp. HS26 [3]; pH 7.5, day 0) was 35.07 % DW and the Ash (Chlorella sp. HS26 [3]; pH 7.5, day 8) was 3.05 % DW. The “Total Carbohydrates” value (Chlorella sp. HS26 [3]; pH 7.5, day 8) was 33.62 % DW, the “Total Lipids” value (Chlorella sp. HS26 [3]; pH 7.5, day 8) was 23.66 % DW and the “Total Protein” value (Chlorella sp. HS26 [3]; pH 7.5, day 8) was 39.69 % DW. The growth inhibited ([4]; internal acetate concentration 53 g/L) was “not”, the growth inhibited ([4]; internal acetate concentration 153 g/L) was “inhibited” and the “Cell Dry Weights” value ([4]; pH 4.5, day 0) was 0.4 g/L. The “Cell Dry Weights” value ([4]; pH 4.5, day 1) was 0.5 g/L, the “Cell Dry Weights” value ([4]; pH 4.5, day 2) was 0.3 g/L and the “Cell Dry Weights” value ([4]; pH 4.5, day 3) was 0.2 g/L. For the same compound, the “Cell Dry Weights” value ([4]; pH 4.5, day 4) was 0.3 g/L, the “Cell Dry Weights” value ([4]; pH 4.5, day 5) was 0.0 g/L and the “Cell Dry Weights” value ([4]; pH 5.0, day 0) was 0.4 g/L. The “Cell Dry Weights” value ([4]; pH 5.0, day 1) was 2.3 g/L, the “Cell Dry Weights” value ([4]; pH 5.0, day 2) was 5.0 g/L and the “Cell Dry Weights” value ([4]; pH 5.0, day 3) was 7.1 g/L. For the same compound, the “Cell Dry Weights” value ([4]; pH 5.0, day 4) was 8.9 g/L, the “Cell Dry Weights” value ([4]; pH 5.0, day 5) was 10.0 g/L and the “Cell Dry Weights” value ([4]; pH 5.5, day 0) was 0.4 g/L. For the same compound, the “Cell Dry Weights” value ([4]; pH 5.5, day 1) was 2.7 g/L, the “Cell Dry Weights” value ([4]; pH 5.5, day 2) was 5.6 g/L and the “Cell Dry Weights” value ([4]; pH 5.5, day 3) was 8.0 g/L. The “Cell Dry Weights” value ([4]; pH 5.5, day 4) was 10.2 g/L, the “Cell Dry Weights” value ([4]; pH 5.5, day 5) was 11.6 g/L and the “Cell Dry Weights” value ([4]; pH 7.0, day 0) was 0.4 g/L. For the same compound, the “Cell Dry Weights” value ([4]; pH 7.0, day 1) was 1.5 g/L, the “Cell Dry Weights” value ([4]; pH 7.0, day 2) was 2.9 g/L and the “Cell Dry Weights” value ([4]; pH 7.0, day 3) was 4.1 g/L. For the same compound, the “Cell Dry Weights” value ([4]; pH 7.0, day 4) was 5.4 g/L, the “Cell Dry Weights” value ([4]; pH 7.0, day 5) was 6.3 g/L and the “Cell Dry Weight” value (Chlorella sp. HS26 [5]; day 0) was 0.3 g/L. The “Cell Dry Weight” value (Chlorella sp. HS26 [5]; day 1) was 0.8 g/L, the “Cell Dry Weight” value (Chlorella sp. HS26 [5]; day 2) was 2.7 g/L and the “Cell Dry Weight” value (Chlorella sp. HS26 [5]; day 3) was 3.7 g/L. For the same compound, the “Cell Dry Weight” value (Chlorella sp. HS26 [5]; day 4) was 4.7 g/L, the “Cell Dry Weight” value (Chlorella sp. HS26 [5]; day 5) was 5.3 g/L and the “Cell Dry Weight” value (Chlorella sp. HS26 [5]; day 6) was 5.3 g/L. It also gave an Aerobic bacteria count (Aerobic bacteria; pH set point 5.5, day 0.0) of 1.1E+04 CFU/mL, an Aerobic bacteria count (Aerobic bacteria; pH set point 5.5, day 0.9) of 2.1E+04 CFU/mL and an Aerobic bacteria count (Aerobic bacteria; pH set point 5.5, day 1.9) of 2.2E+04 CFU/mL. For the same compound, the average three-day productivity (Chlorella sp. HS26 [6]; pH 6.5 cultures) was 1.14 g/L/day, the average three-day productivity (Chlorella sp. HS26 [6]; pH 7.5 cultures) was 0.76 g/L/day and the “respiration rate in response to acetic acid toxicity” value (Chlorella sp. HS26 [7]) was “increases its respiration rate”. For the same compound, the “respiration rate in response to acetic acid toxicity” value [8] was “increases respiration rate”.
With `Cl` [HCl, hydrochloric acid] the “Cell Dry Weight” value ([2]; day 0) was 0.1 g/L, the “Cell Dry Weight” value ([2]; day 1) was 1.6 g/L and the “Cell Dry Weight” value ([2]; day 2) was 4.3 g/L. For the same compound, the “Cell Dry Weight” value ([2]; day 3) was 5.5 g/L, the “Cell Dry Weight” value ([2]; day 4) was 6.5 g/L and the “Cell Dry Weight” value ([2]; day 5) was 8.1 g/L. It also gave a Contamination (total aerobic bacteria; day 0) of 1.9E+05 CFU/mL, a Contamination (total aerobic bacteria; day 1) of 2.9E+10 CFU/mL and a Contamination (total aerobic bacteria; day 2) of 1.3E+16 CFU/mL. It also gave a Contamination (total aerobic bacteria; day 3) of 2.1E+18 CFU/mL, a Contamination (total aerobic bacteria; day 4) of 1.4E+17 CFU/mL and a Contamination (total aerobic bacteria; day 5) of 3.4E+21 CFU/mL.
`N[C@@H](CCC(=O)O)C(=O)[O-].[Na+]` [MSG, monosodium glutamate] was tested, and the “Cell Dry Weight” value ([9]; day 0) was 0.2 g/L, the “Cell Dry Weight” value ([9]; day 1) was 3.5 g/L and the “Cell Dry Weight” value ([9]; day 2) was 6.8 g/L. For the same compound, the “Cell Dry Weight” value ([9]; day 3) was 8.1 g/L, the “Cell Dry Weight” value ([9]; day 4) was 9.7 g/L and the “Cell Dry Weight” value ([9]; day 5) was 10.2 g/L.
With `N` [NH3, ammonia] the “Cell Dry Weight” value ([9]; day 0) was 0.2 g/L, the “Cell Dry Weight” value ([9]; day 1) was 1.9 g/L and the “Cell Dry Weight” value ([9]; day 2) was 7.4 g/L. For the same compound, the “Cell Dry Weight” value ([9]; day 3) was 7.8 g/L, the “Cell Dry Weight” value ([9]; day 4) was 9.9 g/L and the “Cell Dry Weight” value ([9]; day 5) was 10.3 g/L.
